What follows are molecules tested against T1, recombinant Human CYP17 enzyme (17-20 lyase) (Homo sapiens, UniProt P05093) (assay: Cytochrome P450, 17-20 lyase (CYP17-lyase) assay, 17-α-hydroxy pregnenolone [21-3H] as substrate). Details: not given.
T1 construct: made in house; host or cells: A549 cells, adenoviral expression system; purified cell membrane preparations
T1 sequence (P05093 1-508): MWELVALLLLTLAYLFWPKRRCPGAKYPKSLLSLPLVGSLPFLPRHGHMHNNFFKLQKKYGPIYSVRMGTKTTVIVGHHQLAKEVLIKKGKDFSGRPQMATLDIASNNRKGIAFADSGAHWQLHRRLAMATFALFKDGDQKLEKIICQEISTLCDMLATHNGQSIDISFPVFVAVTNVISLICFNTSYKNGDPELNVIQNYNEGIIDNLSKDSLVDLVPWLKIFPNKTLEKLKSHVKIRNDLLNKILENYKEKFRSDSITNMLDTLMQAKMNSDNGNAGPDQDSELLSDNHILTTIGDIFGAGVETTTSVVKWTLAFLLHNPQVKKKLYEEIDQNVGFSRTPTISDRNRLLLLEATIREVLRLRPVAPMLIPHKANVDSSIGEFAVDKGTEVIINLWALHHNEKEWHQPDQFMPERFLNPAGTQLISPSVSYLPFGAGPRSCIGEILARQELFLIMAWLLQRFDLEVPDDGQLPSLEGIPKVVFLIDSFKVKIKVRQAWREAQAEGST
Type: biochemical
From the text: 1) Cytochrome P450, 17-20 Lyase (CYP17-Lyase) Assay Development Using Recombinant Human CYP17 Enzyme and 17-α-Hydroxy Pregnenolone [21-3H] as the Substrate.
Cytochrome P450, 17-α-Hydroxylase, 17-20 lyase (CYP17) is a multi functional enzyme that plays a key role in the biosynthesis of steroid hormones. It catalyses both conventional hydroxylation and also the carbon-carbon bond cleavage reactions (Peter Lee-Robichaud et al, Biochem. J, (1997) 321, 857-63). In the hydroxylation reaction, it converts progesterone and pregnenolone to the corresponding hydroxylated products 17-α-hydroxy progesterone and 17-α-hydroxy pregnenolone. In the lyase reaction, it catalyzes the conversion of these hydroxylated substrates to Androstenedione and Dehydroepiandrosterone (DHEA) respectively. In the Cyp17 lyase assay described here, the conversion of 17-α-hydroxy pregnenolone to Dehydroepiandrosterone and acetic acid is being monitored.
Assay method was adopted from a published protocol with some modifications to suit our requirements (Dmitry N Grigoryev et al, Analytical Biochemistry, (1999) 267, 319-330). The conversion of 17-α-hydroxy pregnenolone to Dehydroepiandrosterone is accompanied by the release of acetic acid. In the Cyp17 lyase assay, 17-α-hydroxy pregnenolone labeled with tritium (3H) at position 21 is used as the substrate. Chloroform extraction removes the radioactive steroids and acetic acid is taken into aqueous layer. The tritiated acetic acid released in the assay thus extracted is quantified to determine the enzyme activity.
Initial buffer conditions were, 50 mM Phosphate buffer, pH 7.5 was used as the starting buffer for Cyp17 lyase activity based on the data published in US patent publication No. US2004/0198773 A1. […] Human Cyp 17 gene was cloned and expressed in Adenoviral expression system in A549 cell lines. The purified cell membrane preparations were used as the source for Human CYP17 enzyme. Total protein concentration: 8 mg/mL.
For routine screening, the assay was set up with 16 μg of enzyme in 50 μL reaction volume. 17α-hydroxy pregnenolone [21-3H] was added to a final concentration of 0.25 μM. NADPH is used at a final concentration of 4.2 mM. Total reaction volume was made up to 50 μL with 50 mM Phosphate buffer pH 7.5. The reaction mixture was incubated at room temperature for 90 minutes with gentle shaking. The reaction was stopped by the addition of 100 μL of buffer. 500 μL of 5% freshly prepared activated charcoal was added to the solution and mixed well by vortexing. The samples were centrifuged at 17568×g for 5 minutes. (14000 rpm). The supernatant was carefully transferred to fresh tube and 1.3 mL of scintillation fluid was added, mixed by vortexing.
The radioactivity was measured in a 1450 MicroBeta TriLux™ scintillation counter from Wallac-Perkin Elmer®, USA. The measurements were carried out in 2.0 mL Eppendorf™ tubes. Each tube was counted for 1 minute. The amount of tritiated acetic acid released is proportional to the lyase activity. Percent lyase activity in presence of inhibitor was calculated using the formula given below.
[formula] • Sample: Enzyme reaction in presence of inhibitor. • Positive control: Enzyme reaction without inhibitor but containing DMSO at 1% final concentration. • Blank—Contains all reagents except enzyme. • % Inhibition=100%−% Lyase activity
For IC50 determination, the % inhibition was plotted as a function of inhibitor concentration. The data was fitted to sigmoidal equation using Graphpad Prism® software IV to generate IC50 values.
`CCn1c2c(c3cc(F)ccc31)C(=O)N(c1cnccc1C)CC2` [Example 59A, 5-ethyl-8-fluoro-2-(4-methylpyridin-3-yl)-2,3,4,5-tetrahydro-1H-pyrido[4,3-b]indol-1-one] showed an IC50 of 29 nM.

Same assay, conditions: at 10 μM; read-out: hCYP17 Lyase % Inh
In the case of `Cc1ccncc1N1CCc2ccc(NC(=O)C3CC3)cc2C1=O` [Example 25A, Cyclopropanecarboxylic acid [2-(4-methyl-pyridin-3-yl)-1-oxo-1,2,3,4-tetrahydro-isoquinolin-7-yl]-amide], the inhibition at 10 µM is reported as 35%.
Work on `Cc1ccncc1N1CCc2scc(-c3ccc(F)cc3)c2C1=O` [Example 15A, 3-(4-Fluoro-phenyl)-5-(4-methyl-pyridin-3-yl)-6,7-dihydro-5H-thieno[3,2-c]pyridin-4-one] yielded an inhibition at 10 µM of 35%.
`O=C1c2ccsc2CCN1c1cccnc1` [Example 8A, 5-Pyridin-3-yl-6,7-dihydro-5H-thieno[3,2-c]pyridin-4-one] gave an inhibition at 10 µM of 27%.
`Cc1ccncc1N1CCc2sccc2C1=O` [Example 7A, 5-(4-Methyl-pyridin-3-yl)-6,7-dihydro-5H-thieno[3,2-a]pyridin-4-one] gave an inhibition at 10 µM of 75%.

Same assay, conditions: human CYP17 lyase; substrate 0.25 μM; room temperature, 90 minutes; read-out: Lyase IC 50 nM Human
`COc1cc2c(cc1Cl)C(=O)N(c1cnccc1C1CC1)CC2` [Example 89A, 7-chloro-2-(4-cyclopropylpyridin-3-yl)-6-methoxy-3,4-dihydroisoquinolin-1(2H)-one] showed an IC50 of 10 nM.
Molecule `Cc1ccncc1N1CCc2[nH]c3ccc(F)cc3c2C1=O` [Example 60A, 8-fluoro-2-(4-methylpyridin-3-yl)-2,3,4,5-tetrahydro-1H-pyrido[4,3-b]indol-1-one] has an IC50 of 9 nM.
`Cc1ccncc1N1CCc2ccc3ccccc3c2C1=O` [Example 10A, 2-(4-Methyl-pyridin-3-yl)-3,4-dihydro-2H-benzo[h]isoquinolin-1-one] gave an IC50 of 3.5 nM.
In the case of `Cc1ccncc1N1CCc2cnccc2C1=O` [Example 67A, 2-(4-methylpyridin-3-yl)-3,4-dihydro-2,6-naphthyridin-1(2H)-one], the IC50 is reported as 716 nM.
`CCn1ccc2c1C(=O)N(c1cnccc1C)CC2` [Example 28A, 1-Ethyl-6-(4-methyl-pyridin-3-yl)-1,4,5,6-tetrahydro-pyrrolo[2,3-c]pyridin-7-one] gave an IC50 of 70 nM.
For `CCn1c2c(c3ccccc31)CC(C)N(c1cccnc1)C2=O` (stereo not drawn) [Example 42A, 9-ethyl-3-methyl-2-(pyridin-3-yl)-2,3,4,9-tetrahydro-1H-pyrido[3,4-b]indol-1-one], the IC50 was 55 nM.
Molecule `Cc1ccncc1-n1ccc2[nH]c3ccccc3c2c1=O` [Example 62A, 2-(4-methylpyridin-3-yl)-2,5-dihydro-1H-pyrido[4,3-b]indol-1-one] has an IC50 of 17 nM.
`Cc1ccncc1N1CCc2cc(F)c(F)cc2C1=O` [Example 49A, 6,7-difluoro-2-(4-methylpyridin-3-yl)-3,4-dihydroisoquinolin-1(2H)-one] was tested, and the IC50 was 159 nM.
`O=c1c2c(ccn1-c1cnccc1C(F)(F)F)[nH]c1ccc(F)cc12` [Example 64A, 8-fluoro-2-(4-(trifluoromethyl)pyridin-3-yl)-2,5-dihydro-1H-pyrido[4,3-b]indol-1-one] gave an IC50 of 829 nM.
Molecule `CC1Cc2ccc(C(F)(F)F)cc2C(=O)N1c1cnccc1C(F)(F)F` (stereo not drawn) [Example 70A, 3-methyl-7-(trifluoromethyl)-2-(4-(trifluoromethyl)pyridin-3-yl)-3,4-dihydroisoquinolin-1(2H)-one] has an IC50 of 744 nM.
`CCn1c2c(c3ccccc31)CC(C)N(c1cnccc1C)C2=O` (stereo not drawn) [Example 46A, 9-Ethyl-3-methyl-2-(4-methyl-pyridin-3-yl)-2,3,4,9-tetrahydro-b-carbolin-1-one] showed an IC50 of 44 nM.
`Cc1ccncc1N1CCc2sc(-c3ccc(F)cc3)cc2C1=O` [Example 14A, 2-(4-Fluoro-phenyl)-5-(4-methyl-pyridin-3-yl)-6,7-dihydro-5H-thieno[3,2-c]pyridin-4-one] showed an IC50 of 755 nM.
`Cc1ccncc1N1C(=O)c2cc(C(F)(F)F)ccc2CC1C` (stereo not drawn) [Example 48A, 3-Methyl-2-(4-methyl-pyridin-3-yl)-7-trifluoromethyl-3,4-dihydro-2H-isoquinolin-1-one] was tested, and the IC50 was 16 nM.
